# Results: patent US10035818B2, “Polyethylene glycol based prodrug of adrenomedullin and use thereof” (Bayer Pharma Aktiengesellschaft, priority 2011, dated 2018)
# Where no end group is shown, it is not given here. Side-chain parts run from the residue outwards. Dab = NCC[C@H](N)C(=O)O
# Legend:
# normotensive Wistar rats = experiment: Blood pressure and heart rate in telemetered, normotensive Wistar rats; format: in vivo
# Excerpt: The cardiovascular effects induced by compounds according to the invention are investigated in freely moving conscious female Wistar rats (body weight>200 g) by radiotelemetric measurement of blood pressure and heart rate. Briefly, the telemetric system (DSI Data Science International, MN, USA) is composed on 3 basic elements: implantable transmitters (TA11PA-C40), receivers (RA1010) and a computer-based acquisition software (Dataquest™ A.R.T. 4.1 for Windows). Rats are instrumented with pressure implants for chronic use at least 14 days prior to the experiments. The sensor catheter is tied with 4-0 suture several times to produce a stopper 0.5 cm from the tip of the catheter. During catheter implantation rats are anesthetized with pentobabital (Nembutal, Sanofi: 50 mg/kg i.p.). After shaving the abdominal skin, a midline abdominal incision is made, and the fluid-filled sensor catheter is inserted upstream into the exposed descending aorta between the iliac bifurcation and the renal arteries. The catheter is tied several times at the stopper. The tip of the telemetric catheter is located just caudal to the renal arteries and secured by tissue adhesive. The transmitter body is affixed to the inner peritoneal wall before closure of abdomen. A two-layer closure of the abdominal incision is used, with individual suturing of the peritoneum and the muscle wall followed by closure of the outer skin. For postsurgical protection against infections and pain a single dosage of an antibiotic (Oxytetracyclin 10% R, 5.0 ml/kg s.c., beta-pharma GmbH&Co, Germany) and analgesic is injected (Rimadyl R, 5.0 ml/kg s.c., Pfizer, Germany). The hardware configuration is equipped for 24 animals. Each rat cage is positioned on top of an individual receiver platform. After activation of the implanted transmitters, an on-line data acquisition system, samples data and converts telemetric pressure signals to mm Hg. A barometric pressure reference allows for relation of absolute pressure (relative to vacuum) to ambient atmospheric pressure. […]
# Göttingen minipigs [1] = experiment: Acute lung injury in mini pigs induced by intratracheal LPS; format: in vivo
# Excerpt: (§1) Acute lung injury is induced in anesthetized mini pigs by use of lipopolysaccharide (LPS) or oleic acid as challenges. In detail: female Göttingen minipigs of ca. 3.5 to 5.5 kg body weight (Ellegaard, Denmark) are kept anesthetized by an continuous i.v.-infusion of Ketavet®, Dormicum® and Pancuronium® after premedication with an intramuscular injection of Ketavet®/Stresnil®. After intratracheal intubation animals are artificially ventilated using a pediatric respirator (Sulla 808V; Dräger, Germany) with an oxygen air mixture at a tidal volume of 30 to 50 ml and constant frequency of 25 min^−1. Arterial PaCO2 is adjusted to about 40 mmHg by […]. […] Cellular content of BALF is determined by use of a blood cell counter (Cell DYN 3700). […]
# Göttingen minipigs [2] = experiment: Acute lung injury in mini pigs induced by oleic acid infusion; format: in vivo
# Excerpt: as §1
# [3] = molecular target: T1, human adrenomedullin-receptor (Homo sapiens, UniProt O60895+Q16602); experiment: Recombinant adrenomedullin-receptor reporter cell (CHO, aequorin luminescence); format: cell-based; details: before incubation; read-out: EC50 T = 0 h
# T1 construct: expressed in transfected cells; host or cells: CHO (Chinese hamster ovary) aequorin reporter cell line
# T1 sequence (Q16602 23-461): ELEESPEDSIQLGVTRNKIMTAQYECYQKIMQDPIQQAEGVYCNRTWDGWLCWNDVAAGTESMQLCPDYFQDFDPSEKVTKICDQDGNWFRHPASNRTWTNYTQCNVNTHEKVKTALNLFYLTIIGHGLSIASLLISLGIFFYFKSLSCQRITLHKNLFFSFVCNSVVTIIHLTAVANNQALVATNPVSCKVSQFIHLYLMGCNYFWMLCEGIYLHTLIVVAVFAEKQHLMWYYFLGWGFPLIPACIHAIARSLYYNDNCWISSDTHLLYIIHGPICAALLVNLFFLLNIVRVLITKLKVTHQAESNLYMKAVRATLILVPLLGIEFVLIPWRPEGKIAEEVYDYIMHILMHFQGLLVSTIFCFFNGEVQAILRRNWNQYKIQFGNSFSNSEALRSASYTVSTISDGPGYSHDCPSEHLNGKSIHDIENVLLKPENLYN
# T1 sequence (O60895 43-175): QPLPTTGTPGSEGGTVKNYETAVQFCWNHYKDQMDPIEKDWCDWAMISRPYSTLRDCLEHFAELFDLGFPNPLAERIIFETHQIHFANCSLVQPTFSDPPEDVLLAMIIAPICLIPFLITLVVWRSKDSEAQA
# Description: Activation of the receptor by ligands can be measured by aequorin luminescence. Construction of the cell line and measurement procedure has been described in detail [Wunder F., Rebmann A., Geerts A, and Kalthof B., Mol Pharmacol, 73, 1235-1243 (2008)]. In brief: Cells are seeded on opaque 384-well microtiter plates at a density of 4000 cells/well and are grown for […]. After removal of culture medium, cells are loaded for 3 h with 0.6 μg/ml coelenterazine in Ca^2+-free Tyrode solution (130 mM sodium chloride, 5 mM potassium chloride, 20 mM HEPES (4-(2-hydroxyethyl)-1-piperazineethanesulfonic acid), 1 mM magnesium chloride, and 4.8 mM sodium hydrogen carbonate, pH 7.4) supplemented with 0.2 mM 3-Isobutyl-1-methylxanthine (IBMX) in a cell culture incubator. Compounds are added for 6 min in calcium^2+-free Tyrode solution containing 0.1% bovine serum albumin. Immediately before adding calcium^2+ to a final concentration of 3 mM measurement of the aequorin luminescence is started by use of a suitable luminometer. Luminescence is measured for 60 s.
molecule,measurement,setting,value
"CC[C@H](C)[C@H](NC(=O)[C@H](CCC(N)=O)NC(=O)[C@H](Cc1c[nH]cn1)NC(=O)[C@H](C)NC(=O)[C@H](CC(C)C)NC(=O)[C@H](CCCCN)NC(=O)[C@H](CCC(N)=O)NC(=O)[C@@H](NC(=O)[C@@H](NC(=O)[C@@H]1CSSC[C@H](NC(=O)CNC(=O)[C@H](Cc2ccccc2)NC(=O)[C@H](CO)NC(=O)[C@H](CCCNC(=N)N)NC(=O)[C@H](CC(C)C)NC(=O)CNC(=O)[C@H](CCC(N)=O)NC(=O)[C@H](Cc2ccccc2)NC(=O)[C@H](CC(N)=O)NC(=O)[C@H](CC(N)=O)NC(=O)[C@H](CCSC)NC(=O)[C@H](CO)NC(=O)[C@H](CCC(N)=O)NC(=O)[C@H](CCCNC(=N)N)NC(=O)[C@@H](N)Cc2ccc(O)cc2)C(=O)N[C@@H](CCCNC(=N)N)C(=O)N[C@@H](Cc2ccccc2)C(=O)NCC(=O)N[C@@H]([C@@H](C)O)C(=O)N1)[C@@H](C)O)C(C)C)C(=O)N[C@@H](Cc1ccc(O)cc1)C(=O)N[C@@H](CCC(N)=O)C(=O)N[C@@H](Cc1ccccc1)C(=O)N[C@H](C(=O)N[C@@H](CC(=O)O)C(=O)N[C@@H](CCCCN)C(=O)N[C@@H](CC(=O)O)C(=O)N[C@@H](CCCCN)C(=O)N[C@@H](CC(=O)O)C(=O)N[C@@H](CC(N)=O)C(=O)N[C@H](C(=O)N[C@@H](C)C(=O)N1CCC[C@H]1C(=O)N[C@@H](CCCNC(=N)N)C(=O)N[C@@H](CO)C(=O)N[C@@H](CCCCN)C(=O)N[C@H](C(=O)N[C@@H](CO)C(=O)N1CCC[C@H]1C(=O)N[C@@H](CCC(N)=O)C(=O)NCC(=O)N[C@@H](Cc1ccc(O)cc1)C(N)=O)[C@@H](C)CC)C(C)C)[C@@H](C)O [ADM, adrenomedullin (human)]",duration of blood pressure reduction,normotensive Wistar rats,≤ 4 h
same,time after which MABP had returned to base line levels,"normotensive Wistar rats; subcutaneous, FIG. 1",about 3.5 hours
same,mean reduction of MABP at peak,"normotensive Wistar rats; subcutaneous, one hour after administration, FIG. 1",~20%
"O-{[(3 S)-3-Amino-4-({(2R)-1-amino-3-[(2,5-dioxo-1-{3-oxo-3-[(2-{ω-methoxy-poly-oxyethylen[40 kDa]}ethyl)amino]propyl}pyrrolidin-3-yl)sulfanyl]-1-oxopropan-2-yl}amino)-4-oxobutyl]carbamoyl}-L-tyrosyl-adrenomedullin(2-52) (Y([Dab-Cys‑NH2-succinimide-PEG 40 kDa])RQSMNNFQGLRSFGCRFGTCTVQKLAHQIYQFTDKDKDNVAPRSKISPQGY; cysteine pairing not given here; also: PEG 40 kDa prodrug linker attached by carbamate to Tyr1 phenol O; UniProt P35318 95-146, looked up) [Example 1, PEG 40 kDa based prodrug of adrenomedullin]",doses found to be active,"Göttingen minipigs [1]; as referred to the peptide component, LPS protocol",≤ 30 μg/kg body weight
same,"LPS induced changes (PAP, EVWLI, PaO2/FiO2, cellular content of BALF)",Göttingen minipigs [1]; i.v.-bolus 15 min before the LPS challenge,ameliorated or prevented
same,"oleic acid induced changes (PAP, EVLWI, PaO2/FiO2)",Göttingen minipigs [2]; administration 15 min before start of the OA infusion,ameliorated or prevented
same,doses found to be active,"Göttingen minipigs [2]; as referred to the peptide component, oleic acid protocol",≤ 30 μg/kg body weight
"O-{[(3-N-Methyl-amino-4-({(2R)-1-amino-3-[(2,5-dioxo-1-{3-oxo-3-[(2-{ω-methoxy-poly-oxyethylen[40 kDa]}ethyl)amino]propyl}pyrrolidin-3-yl)sulfanyl]-1-oxopropan-2-yl}amino)-4-oxobutyl]carbamoyl}-L-tyrosyl-adrenomedullin(2-52) [Example 2]",EC50,[3],> 1000 nM
